Patent US20070021419A1, “2-Aminophenyl-4-phenylpyrimidines as kinase inhibitors” (Cyclacel Limited, priority 2003, published 2007)

Key:
Aurora-A = target: T1, Aurora-A (Homo sapiens, UniProt O14965); assay: Kinase assay, radioactive phosphate incorporation, Aurora-A; assay type: biochemical; conditions: 100 μM ATP, 30° C.; read-out: Kinase inhibition IC50 Aurora-A
T1 sequence (O14965 1-403): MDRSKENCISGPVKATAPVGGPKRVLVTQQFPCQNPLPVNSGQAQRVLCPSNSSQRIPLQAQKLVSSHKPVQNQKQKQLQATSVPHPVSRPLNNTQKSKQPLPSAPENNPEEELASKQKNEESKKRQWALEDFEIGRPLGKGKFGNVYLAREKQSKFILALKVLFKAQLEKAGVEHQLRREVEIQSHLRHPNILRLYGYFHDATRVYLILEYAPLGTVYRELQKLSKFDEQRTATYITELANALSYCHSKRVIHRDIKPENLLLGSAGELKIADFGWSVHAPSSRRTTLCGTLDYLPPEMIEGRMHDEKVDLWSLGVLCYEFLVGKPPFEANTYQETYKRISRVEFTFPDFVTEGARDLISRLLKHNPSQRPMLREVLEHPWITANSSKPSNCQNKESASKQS
Procedure: (§1) The compounds from the examples above were investigated for their ability to inhibit the enzymatic activity of various protein kinases. This was achieved by measurement of incorporation of radioactive phosphate from ATP into appropriate polypeptide substrates. Recombinant protein kinases and kinase complexes were produced or obtained commercially. Assays were performed using 96-well plates and appropriate assay buffers (typically 25 mM β-glycerophosphate, 20 mM MOPS, 5 MM EGTA, 1 mM DTT, 1 mM Na3VO3, pH 7.4), into which were added 2-4 μg of active enzyme with appropriate substrates. The reactions were initiated by addition of Mg/ATP mix (15 mM MgCl2+100 μM ATP with 30-50 kBq per well of [γ-^32P]-ATP) and mixtures incubated as required at 30° C. Reactions were stopped on ice, followed by filtration through p81 filterplates or GF/C filterplates (Whatman Polyfiltronics, Kent, UK). After washing 3 times with 75 mM aq orthophosphoric acid, plates were dried, scintillant added and incorporated radioactivity measured in a scintillation counter (TopCount, Packard Instruments, Pangbourne, Berks, UK). Compounds for kinase assay were made up as 10 mM stocks in DMSO and diluted into 10% DMSO in assay buffer.

CDK7/cyclin H = CDK7/cyclin H (Homo sapiens, UniProt P50613); assay: Kinase assay, radioactive phosphate incorporation, CDK7/cyclin H; assay type: biochemical; conditions: 100 μM ATP, 30° C.; read-out: Kinase inhibition IC50 CDK7/cyclin H
Chain of CDK7/cyclin H (P50613 whole entry, species assumed): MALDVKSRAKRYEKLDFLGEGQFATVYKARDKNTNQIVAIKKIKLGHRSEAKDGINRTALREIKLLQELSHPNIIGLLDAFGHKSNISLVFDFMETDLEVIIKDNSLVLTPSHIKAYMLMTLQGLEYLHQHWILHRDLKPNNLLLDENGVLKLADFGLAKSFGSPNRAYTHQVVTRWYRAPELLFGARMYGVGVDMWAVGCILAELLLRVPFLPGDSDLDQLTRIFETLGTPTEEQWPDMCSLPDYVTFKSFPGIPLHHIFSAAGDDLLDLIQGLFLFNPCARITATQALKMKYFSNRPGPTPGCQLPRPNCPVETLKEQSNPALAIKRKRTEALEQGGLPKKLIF
Chain of CDK7/cyclin H (P51946 whole entry partner, species assumed): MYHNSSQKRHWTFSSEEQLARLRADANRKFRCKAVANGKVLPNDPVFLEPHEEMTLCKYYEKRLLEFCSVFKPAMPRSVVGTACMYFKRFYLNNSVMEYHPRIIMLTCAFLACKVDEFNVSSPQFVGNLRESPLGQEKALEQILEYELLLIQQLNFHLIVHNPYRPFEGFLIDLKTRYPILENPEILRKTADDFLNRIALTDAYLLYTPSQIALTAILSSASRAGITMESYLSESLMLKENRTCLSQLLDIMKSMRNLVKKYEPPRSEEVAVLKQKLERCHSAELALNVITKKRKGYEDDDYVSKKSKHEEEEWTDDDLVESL
Summary of the method: (§2)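 Recombinant kinase complexes (2-4 μg) with polypeptide substrate were run in pH 7.4 β-glycerophosphate/MOPS buffer, started with 15 mM MgCl2 plus 100 μM ATP including [γ-^32P]-ATP, and incubated at 30° C. Substrate-incorporated ^32P was captured on filter plates, acid-washed and scintillation-counted. Compounds were diluted from DMSO stocks into 10% DMSO buffer.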

CDK9/cyclin T1 = CDK9/cyclin T1 (Homo sapiens, UniProt P50750); assay: Kinase assay, radioactive phosphate incorporation, CDK9/cyclin T1; assay type: biochemical; conditions: 100 μM ATP, 30° C.; read-out: Kinase inhibition IC50 CDK9/cyclin T1
Chain of CDK9/cyclin T1 (P50750 whole entry, species assumed): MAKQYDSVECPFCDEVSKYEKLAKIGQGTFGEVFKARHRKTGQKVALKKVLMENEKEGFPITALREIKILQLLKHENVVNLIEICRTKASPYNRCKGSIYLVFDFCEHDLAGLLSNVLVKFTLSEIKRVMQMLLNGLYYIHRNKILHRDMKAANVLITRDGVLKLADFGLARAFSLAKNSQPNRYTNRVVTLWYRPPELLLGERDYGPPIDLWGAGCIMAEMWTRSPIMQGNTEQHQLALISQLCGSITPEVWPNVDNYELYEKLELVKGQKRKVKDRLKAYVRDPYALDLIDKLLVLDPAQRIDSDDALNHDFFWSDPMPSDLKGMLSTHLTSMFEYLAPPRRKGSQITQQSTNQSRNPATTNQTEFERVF
Chain of CDK9/cyclin T1 (O60563 whole entry partner, species assumed): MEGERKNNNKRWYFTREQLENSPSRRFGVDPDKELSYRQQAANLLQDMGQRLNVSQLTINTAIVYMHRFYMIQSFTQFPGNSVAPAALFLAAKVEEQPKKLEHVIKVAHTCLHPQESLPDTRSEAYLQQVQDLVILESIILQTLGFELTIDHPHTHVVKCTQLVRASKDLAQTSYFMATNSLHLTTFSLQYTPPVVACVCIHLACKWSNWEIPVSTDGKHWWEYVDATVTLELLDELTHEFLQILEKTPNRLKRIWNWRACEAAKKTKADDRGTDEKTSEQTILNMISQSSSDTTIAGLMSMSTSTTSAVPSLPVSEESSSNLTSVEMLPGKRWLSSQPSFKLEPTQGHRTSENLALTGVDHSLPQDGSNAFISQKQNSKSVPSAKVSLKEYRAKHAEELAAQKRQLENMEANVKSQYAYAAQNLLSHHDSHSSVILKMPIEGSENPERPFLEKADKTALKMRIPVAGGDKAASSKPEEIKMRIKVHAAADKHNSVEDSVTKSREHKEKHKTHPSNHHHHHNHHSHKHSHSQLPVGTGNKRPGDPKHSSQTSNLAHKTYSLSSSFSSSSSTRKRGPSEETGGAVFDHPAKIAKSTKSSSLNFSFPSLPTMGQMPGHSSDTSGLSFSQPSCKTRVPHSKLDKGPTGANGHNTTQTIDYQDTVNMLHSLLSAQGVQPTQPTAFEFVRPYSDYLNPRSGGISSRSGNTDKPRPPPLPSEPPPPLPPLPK
Summary of the method: as §2

GSK3β = GSK3β (Homo sapiens, UniProt P49841); assay: Kinase assay, radioactive phosphate incorporation, GSK3β; assay type: biochemical; conditions: 100 μM ATP, 30° C.; read-out: Kinase inhibition IC50 GSK3β
Chain of GSK3β (P49841 whole entry, species assumed): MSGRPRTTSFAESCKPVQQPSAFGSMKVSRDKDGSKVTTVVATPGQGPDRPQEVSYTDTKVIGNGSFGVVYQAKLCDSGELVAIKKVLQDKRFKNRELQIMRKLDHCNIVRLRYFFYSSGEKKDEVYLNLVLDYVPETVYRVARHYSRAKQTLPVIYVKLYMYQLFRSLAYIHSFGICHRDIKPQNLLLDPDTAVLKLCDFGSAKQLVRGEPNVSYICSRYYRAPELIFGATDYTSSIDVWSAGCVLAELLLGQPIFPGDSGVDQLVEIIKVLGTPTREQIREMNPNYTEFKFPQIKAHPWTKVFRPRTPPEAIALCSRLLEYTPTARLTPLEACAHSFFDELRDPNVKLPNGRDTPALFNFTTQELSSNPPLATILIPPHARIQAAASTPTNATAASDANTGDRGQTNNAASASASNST
Summary of the method: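 Inhibition is measured as reduced transfer of radioactive phosphate to a polypeptide substrate by 2-4 μg of recombinant enzyme. Mixtures with Mg/ATP (100 μM ATP, 15 mM MgCl2, [γ-32P]-ATP) in pH 7.4 MOPS-based buffer incubate at 30° C, are stopped on ice, filtered and counted.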

CDK2/cyclin A = CDK2/cyclin A (Homo sapiens, UniProt P24941); assay: Kinase assay, radioactive phosphate incorporation, CDK2/cyclin A; assay type: biochemical; conditions: 100 μM ATP, 30° C.; read-out: Kinase inhibition IC50 CDK2/cyclin A
Procedure: as §1

CDK4/cyclin D1 = CDK4/cyclin D1 (Homo sapiens, UniProt P11802); assay: Kinase assay, radioactive phosphate incorporation, CDK4/cyclin D1; assay type: biochemical; conditions: 100 μM ATP, 30° C.; read-out: Kinase inhibition IC50 CDK4/cyclin D1
Chain of CDK4/cyclin D1 (P11802 whole entry, species assumed): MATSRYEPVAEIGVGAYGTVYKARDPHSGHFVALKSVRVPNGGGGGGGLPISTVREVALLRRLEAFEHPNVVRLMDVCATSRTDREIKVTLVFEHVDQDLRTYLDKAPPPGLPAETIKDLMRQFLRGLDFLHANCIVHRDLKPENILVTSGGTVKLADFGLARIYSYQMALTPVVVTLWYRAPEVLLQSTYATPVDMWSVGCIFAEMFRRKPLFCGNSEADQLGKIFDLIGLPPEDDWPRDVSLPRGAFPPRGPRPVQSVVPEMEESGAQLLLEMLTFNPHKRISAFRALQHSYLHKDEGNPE
Chain of CDK4/cyclin D1 (P24385 whole entry partner, species assumed): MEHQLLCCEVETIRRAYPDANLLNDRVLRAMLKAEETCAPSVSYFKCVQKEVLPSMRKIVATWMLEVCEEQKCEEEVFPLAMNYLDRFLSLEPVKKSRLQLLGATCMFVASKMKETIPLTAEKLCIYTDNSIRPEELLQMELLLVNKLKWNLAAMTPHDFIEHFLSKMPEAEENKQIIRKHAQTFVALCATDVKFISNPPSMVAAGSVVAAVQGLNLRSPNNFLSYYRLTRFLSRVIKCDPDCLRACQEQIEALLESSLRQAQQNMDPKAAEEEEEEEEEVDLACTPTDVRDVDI
Procedure: as §1

CDK2/cyclin E = CDK2/cyclin E (Homo sapiens, UniProt P24941); assay: Kinase assay, radioactive phosphate incorporation, CDK2/cyclin E; assay type: biochemical; conditions: 100 μM ATP, 30° C.; read-out: Kinase inhibition IC50 CDK2/cyclin E
Summary of the method: as §2

HT29 = assay: 72-h MTT cytotoxicity assay, HT29; assay type: cell-based; conditions: Homo sapiens, HT-29, read-out: 72-h MTT IC50 HT29, HT29 cell line
Summary of the method: (§3)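 Read-out is MTT reduction by surviving cells, with formazan dye dissolved in DMSO after 4 h dark incubation at 37° C. Treatment lasted 72 h at 37° C in triplicate across a 1/3 dilution series.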

[1] = test system: transformed human cell lines (A549, HT29, Saos-2); assay: 72-h MTT cytotoxicity assay, average of cell lines; assay type: cell-based; conditions: read-out: 72-h MTT IC50 Average, average of A549, HT29, Saos-2
Summary of the method: as §3

A549 = assay: 72-h MTT cytotoxicity assay, A549; assay type: cell-based; conditions: Homo sapiens, read-out: 72-h MTT IC50 A549, A549 cell line
Summary of the method: as §3

Saos-2 = assay: 72-h MTT cytotoxicity assay, Saos-2; assay type: cell-based; conditions: Homo sapiens, read-out: 72-h MTT IC50 Saos-2, Saos-2 cell line
Summary of the method: as §3

CDK1/cyclin B = CDK1/cyclin B (Homo sapiens, UniProt P06493); assay: Kinase assay, radioactive phosphate incorporation, CDK1/cyclin B; assay type: biochemical; conditions: 100 μM ATP, 30° C.; read-out: Kinase inhibition IC50 CDK1/cyclin B
Chain of CDK1/cyclin B (P06493 whole entry, species assumed): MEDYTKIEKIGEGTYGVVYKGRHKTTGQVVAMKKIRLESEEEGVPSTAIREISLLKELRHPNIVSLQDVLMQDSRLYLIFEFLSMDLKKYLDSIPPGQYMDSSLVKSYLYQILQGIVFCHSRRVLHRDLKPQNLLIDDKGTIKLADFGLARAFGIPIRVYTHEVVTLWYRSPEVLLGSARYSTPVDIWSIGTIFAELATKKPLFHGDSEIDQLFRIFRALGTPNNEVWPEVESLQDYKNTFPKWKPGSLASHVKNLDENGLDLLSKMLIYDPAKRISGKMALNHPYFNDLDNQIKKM
Chain of CDK1/cyclin B (P14635 whole entry partner, species assumed): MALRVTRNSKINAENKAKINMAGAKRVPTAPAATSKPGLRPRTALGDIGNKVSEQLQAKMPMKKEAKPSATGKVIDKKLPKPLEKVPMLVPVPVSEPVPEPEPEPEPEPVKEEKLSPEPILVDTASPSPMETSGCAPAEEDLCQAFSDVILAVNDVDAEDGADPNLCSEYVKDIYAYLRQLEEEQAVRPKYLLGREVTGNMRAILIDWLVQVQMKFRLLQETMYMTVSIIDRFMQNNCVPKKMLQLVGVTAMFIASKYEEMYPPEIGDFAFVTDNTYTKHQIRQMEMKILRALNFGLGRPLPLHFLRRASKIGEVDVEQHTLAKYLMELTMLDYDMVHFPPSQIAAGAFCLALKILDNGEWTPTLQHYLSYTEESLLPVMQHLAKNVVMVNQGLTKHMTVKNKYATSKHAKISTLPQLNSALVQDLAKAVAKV
Procedure: as §1

SMILES | IC50 (Aurora-A) [nM] | IC50 (CDK7/cyclin H) [nM] | IC50 (CDK9/cyclin T1) [nM] | IC50 (GSK3β) [nM] | IC50 (CDK2/cyclin A) [nM] | IC50 (CDK4/cyclin D1) [nM] | IC50 (CDK2/cyclin E) [nM] | IC50 (CDK1/cyclin B) [nM] | IC50 (HT29) [nM] | IC50 [1] [nM] | IC50 (A549) [nM] | IC50 (Saos-2) [nM]
O=[N+]([O-])c1cccc(Nc2nccc(-c3cccc(CN4CCCC4CNc4ccccc4)c3)n2)c1 (stereo not shown) [Compound 86, (3-Nitro-phenyl)-{4-[3-(2-phenylaminomethyl-pyrrolidin-1-ylmethyl)-phenyl]-pyrimidin-2-yl}-amine] | 2400 | 670 | 130 | 160 | – | – | 810 | – | 8900 | 38000 ± 25400 | 49300 | 55800
Oc1ccc(Nc2nccc(-c3cccc(C(F)(F)F)c3)n2)cc1 [Compound 96, 4-[4-(3-trifluoromethyl-phenyl)-pyrimidin-2-ylamino]-phenol] | 20 | – | 80 | – | – | – | – | – | – | – | – | –
Oc1cccc(Nc2nccc(-c3cccc(Cn4cncn4)c3)n2)c1 [Compound 34, 3-[4-(3-[1,2,4]triazol-1-ylmethyl-phenyl)-pyrimidin-2-ylamino]-phenol] | – | 1200 | 130 | 41 | 2400 | 1800 | 240 | 7000 | 8300 | 5400 ± 2500 | 4100 | 3700
O=[N+]([O-])c1cccc(Nc2nccc(-c3ccc(CCn4cncn4)cc3)n2)c1 [Compound 126, (3-Nitro-phenyl)-{4-[4-(2-[1,2,4]triazol-1-yl-ethyl)-phenyl]-pyrimidin-2-yl}-amine] | 340 | – | 90 | 10 | – | – | – | – | – | – | – | –
Oc1ccc(Nc2nccc(-c3cccc(F)c3)n2)cc1 [Compound 113, 4-[4-(3-Fluoro-phenyl)-pyrimidin-2-ylamino]-phenol] | 140 | – | 150 | – | – | – | – | – | – | – | – | –
Oc1cccc(Nc2nccc(-c3cccc(C(F)(F)F)c3)n2)c1 [Compound 95, 3-[4-(3-trifluoromethyl-phenyl)-pyrimidin-2-ylamino]-phenol] | 990 | – | 90 | – | – | – | – | – | – | – | – | –
COc1ccc(Nc2nccc(-c3cccc(CO)c3)n2)cn1 [Compound 125, {3-[2-(6-Methoxy-pyridin-3-ylamino)-pyrimidin-4-yl]-phenyl}-methanol] | 960 | 5900 | 120 | 40 | – | – | – | – | – | – | – | –
Oc1ccc(Nc2nccc(-c3cccc(O)c3)n2)cc1 [Compound 122, 3-[2-(4-Hydroxy-phenylamino)-pyrimidin-4-yl]-phenol] | 6 | – | 190 | – | – | – | – | – | – | – | – | –
COc1ccc(-c2ccnc(Nc3ccc(N4CCOCC4)cc3)n2)cc1 [Compound 111, [4-(4-Methoxy-phenyl)-pyrimidin-2-yl]-(4-morpholin-4-yl-phenyl)-amine] | 520 | – | – | – | – | – | – | – | – | – | – | –
Oc1cccc(Nc2nccc(-c3cc(F)ccc3F)n2)c1 [Compound 114, 3-[4-(2,5-Difluoro-phenyl)-pyrimidin-2-ylamino]-phenol] | 160 | – | 120 | – | – | – | – | – | – | – | – | –
O=[N+]([O-])c1cccc(Nc2nccc(-c3ccc(CN4CCCCC4CO)cc3)n2)c1 (stereo not shown) [Compound 127, (1-{4-[2-(3-Nitro-phenylamino)-pyrimidin-4-yl]-benzyl}-piperidin-2-yl)-methanol] | 1100 | – | 900 | – | – | – | – | – | – | – | – | –
CCOc1ccc(-c2ccnc(Nc3cccc(O)c3)n2)cc1 [Compound 109, 3-[4-(4-Ethoxy-phenyl)-pyrimidin-2-ylamino]-phenol] | 700 | – | 140 | – | 2000 | – | – | – | – | – | – | –

Now from value to molecule, other results behind:

IC50 (Aurora-A) [nM] | IC50 (CDK7/cyclin H) [nM] | IC50 (CDK9/cyclin T1) [nM] | IC50 (GSK3β) [nM] | IC50 (CDK2/cyclin A) [nM] | IC50 (CDK4/cyclin D1) [nM] | IC50 (CDK2/cyclin E) [nM] | IC50 (CDK1/cyclin B) [nM] | SMILES | IC50 (HT29) [nM] | IC50 [1] [nM] | IC50 (A549) [nM] | IC50 (Saos-2) [nM]
1500 | 6400 | 60 | 280 | – | – | – | – | CS(=O)(=O)c1cccc(Nc2nccc(-c3cccc(Cn4cncn4)c3)n2)c1 [Compound 104, (3-Methanesulfonyl-phenyl)-[4-(3-[1,2,4]triazol-1-ylmethyl-phenyl)-pyrimidin-2-yl]-amine] | – | – | – | –
720 | 3100 | 40 | 70 | 2000 | – | – | – | OCc1cccc(-c2ccnc(Nc3cccc(O)c3)n2)c1 [Compound 115, 3-[4-(3-Hydroxymethyl-phenyl)-pyrimidin-2-ylamino]-phenol] | – | – | – | –
390 | 3900 | 60 | 170 | – | 2100 | – | – | COc1ccc(Nc2nccc(-c3cccc(N(C)S(C)(=O)=O)c3)n2)cn1 [Compound 132, N-{3-[2-(6-Methoxy-pyridin-3-ylamino)-pyrimidin-4-yl]-phenyl}-N-methyl-methanesulfonamide] | – | – | – | –
1800 | – | 20 | – | – | – | – | – | COc1cccc(-c2ccnc(Nc3cccc(F)c3)n2)c1 [Compound 118, (3-Fluoro-phenyl)-[4-(3-methoxy-phenyl)-pyrimidin-2-yl]-amine] | – | – | – | –
630 | – | 50 | – | – | – | – | – | OCc1cccc(-c2ccnc(Nc3cccc(F)c3)n2)c1 [Compound 116, {3-[2-(3-Fluoro-phenylamino)-pyrimidin-4-yl]-phenyl}-methanol] | – | – | – | –
2600 | – | 70 | 160 | – | – | – | – | O=[N+]([O-])c1cccc(Nc2nccc(-c3cccc(Cl)c3)n2)c1 [Compound 112, [4-(3-Chloro-phenyl)-pyrimidin-2-yl]-(3-nitro-phenyl)-amine] | – | – | – | –
– | 71 | 44 | 50 | 5100 | 62000 | 140 | 2200 | O=[N+]([O-])c1cccc(Nc2nccc(-c3cccc(Cn4ccnc4)c3)n2)c1 [Compound 29, [4-(3-Imidazol-1-ylmethyl-phenyl)-pyrimidin-2-yl]-(3-nitro-phenyl)-amine] | 1800 | 3300 ± 1400 | 3600 | 4500
– | 130 | 22 | 320 | 820 | 4500 | 300 | 2000 | CN1CCN(Cc2cccc(-c3ccnc(Nc4cccc([N+](=O)[O-])c4)n3)c2)CC1 [Compound 54, {4-[3-(4-Methyl-piperazin-1-ylmethyl)-phenyl]-pyrimidin-2-yl}-(3-nitro-phenyl)-amine] | 770 | 1100 ± 300 | 1100 | 1300
– | 2600 | 35 | 120 | 1000 | 2600 | 860 | 2100 | Oc1cccc(Nc2nccc(-c3cccc(CNCc4ccccc4)c3)n2)c1 [Compound 28, 3-{4-[3-(Benzylamino-methyl)-phenyl]-pyrimidin-2-ylamino}-phenol] | 16000 | 10400 ± 4900 | 8000 | 7100
